# Experimental data: patent US20040024293A1, “Methods and systems for analyzing complex biological systems” (priority 2001, published 2004)
# Key:
# Arabidopsis thaliana = test: Phenotypic profiling of Arabidopsis sprayed with unknown and commercial herbicides (MOA1); format: in vivo
# [1] = test system: Saccharomyces cerevisiae wild type strain BY4743; test: Combined gene expression and metabolite data mapped to KEGG reactions and pathways (AF1); format: cell-based; details: yeast
# Text: In AF1, two different technologies were utilized: gene expression analysis (for examination of mRNA expression) and metabolite analysis. […] As noted previously, existing metabolic databases may be helpful in practicing the methods and systems of the present invention, but many databases include limitations that make their use in data analysis and pathway mapping less than straightforward. […] This caveat to KEGG makes it difficult to pinpoint the correct pathway when attempting to link a gene to a specific pathway. […] The pathway score indicates how meaningful the mapping is, or how likely it is to be correctly indicative of the pathway involved in the perturbation under examination. The method provides a pathway score based on perturbation levels of genes. and/or compounds and the information content of each gene and/or compound in the pathway, i.e., a pathway score indicates the extent to which other pathways are mapped to a gene/compound. For example, imagine that two genes are perturbed in a particular experiment. One gene maps to only one pathway, giving a high degree of probability that the perturbed pathway is the one identified in the mapping. The second gene maps to three pathways. In the later example, there is only one-third the probability that the pathway identified in the mapping is the one perturbed. The present invention provides a method for calculating the pathway scores, so that more weight is given to a score of a gene or compound that maps to only one pathway than to a score of a gene or compound that maps to multiple pathways. […] Where n=the total number of genes in the pathway; ipath—count=the number of pathways containing a gene; and j=the number of genes in the pathway that are perturbed. Another factor to be considered when weighting a pathway score is the degree of perturbation. Degree of perturbation can be calculated, for example, based on a number of standard deviations from a norm, and included in an equation such as the one shown above, so that not only the number of pathways is taken into account, but also accounts for the amount of gene transcript or compound present as compared to a control. Compounds were also linked to pathways using the KEGG database. KEGG links 676 compounds measured in AF1 to a total of 92 pathways. Of the 676 compounds under consideration, 77 were detected in the AF1 samples. […] The multiple mapping feature of KEGG makes it difficult to pinpoint the correct pathway when trying to link a compound to a specific pathway. […] A pathway score calculation is applied to the compounds to account for both information content (number of pathways a compound maps to) and perturbation level. […]
# [2] = test system: Saccharomyces cerevisiae wild type strain BY4743; test: Gene expression analysis of yeast cells treated with antifungal drugs (AF1); format: cell-based; details: p < 0.05; KEGG pathway mapping of gene expression data
# Procedure: Saccharomyces cerevisiae wild type strain BY4743 was purchased from American Type Culture Center (ATCC, Manassas, Va.). The yeast strain was grown in YPD or SD media. […] The cultures started from fresh single colonies were grown in 1.0 ml YPD overnight at 30° C. […] The OD600 was adjusted to 1.0 with YPD media, then 2.0 ml of each was inoculated into three 250 ml flasks, each containing 50 ml of SD media. […] The cells were kept growing for another two hours, then collected by centrifugation at 4000 rpm for 5 minutes at 4° C. Pellets were washed once with ice-cold water, then were lyophilized overnight at 4° C. […] RNA quality was determined using the Bioanalyzer 2100 and the RNA 6000 assay (Agilent Technologies, Palo Alto, Calif.) according to manufacturer's instructions. RNA concentrations were determined spectrophotometrically by measuring the absorption at 260 nm in an Ultrospec 2000 (Pharmacia Biotech, Piscataway, N.J.). […] Labeled cRNAs were evaluated using the RNA 6000 assay on the Agilent Bioanalyzer 2100. Labeled cRNA concentrations were determined spectrophotometrically by measuring the absorption at 260 nm in an Ultrospec 2000 (Pharmacia Biotech, Piscataway, N.J.). […] Each feature was determined from an array's associated pattern file and a detection algorithm. […] Data was evaluated after combining results from fluor reversal replicate hybridizations. […]
# [3] = test system: Saccharomyces cerevisiae wild type strain BY4743; test: Metabolite analysis (GC-MS, LC-MS) of yeast cells treated with antifungal drugs (AF1); format: cell-based; details: for Fold Change of NacetylDglucosamine: metabolite NacetylDglucosamine; for Fold Change of phosphoenolpyruvate: metabolite phosphoenolpyruvate; for Fold Change of thymine: metabolite thymine; for Fold Change of urocanic acid: metabolite urocanic acid; for Fold Change of zeatin: metabolite zeatin
smiles,measurement,setting,value
CCSC(=O)N(CC(C)C)CC(C)C [Butylate],herbicidal phenotype in words,Arabidopsis thaliana,neither showed a strong herbicidal phenotype
Nc1nc[nH]n1 [Amitrole],herbicidal phenotype in words,Arabidopsis thaliana,chlorosis and not true bleaching
C[C@@H]1[C@H](O)[C@@H](C)/C=C/C=C/C=C/C=C/C=C/C=C/C=C/[C@H](O[C@@H]2O[C@H](C)[C@@H](O)[C@H](N)[C@@H]2O)C[C@@H]2O[C@](O)(C[C@@H](O)C[C@@H](O)[C@H](O)CC[C@@H](O)C[C@@H](O)CC(=O)O[C@H]1C)C[C@H](O)[C@H]2C(=O)O [Amphoteracin B],# Reactions (Number Of Pathways Having at Least One Enzyme and One Compound Perturbed),[1],37
same,# Pathways affected by at least one gene,[2],97
CC[C@@H]([C@H](C)O)n1ncn(-c2ccc(N3CCN(c4ccc(OC[C@@H]5CO[C@@](Cn6cncn6)(c6ccc(F)cc6F)C5)cc4)CC3)cc2)c1=O [Posaconazole],Fold Change: aspartic acid,[3]; GC,−0.071
same,Fold Change: campesterol,[3]; GC,0
same,Fold Change: desmosterol,[3]; GC,0
same,Fold Change: iso citric acid,[3]; GC,0.4
same,Fold Change of NacetylDglucosamine,"[3]; platform nLC, p-Value 1",0
same,Fold Change of NacetylDglucosamine,"[3]; platform pLC, p-Value 1",0
same,Fold Change of NacetylLglutamate,"[3]; metabolite NacetylLglutamate, platform pLC, p-Value 1",0
same,Fold Change of NacetylLornithine,"[3]; metabolite NacetylLornithine, platform nLC, p-Value 1",0
same,Fold Change of niacinamide,"[3]; metabolite niacinamide, platform pLC, p-Value 1",0
same,Fold Change of nopaline,"[3]; metabolite nopaline, platform pLC, p-Value 1",0
same,Fold Change of ornithine3,"[3]; metabolite ornithine3, platform GC, p-Value 0.965157424",0.041
same,Fold Change of orotic acid,"[3]; metabolite orotic acid, platform nLC, p-Value 1",0
same,Fold Change of phenylpyruvic acid,"[3]; metabolite phenylpyruvic acid, platform nLC, p-Value 1",0
same,Fold Change of phosphoenolpyruvate,"[3]; platform nLC, p-Value 1",0
same,Fold Change of phosphoenolpyruvate,"[3]; platform pLC, p-Value 1",0
same,Fold Change of pinitol,"[3]; metabolite pinitol, platform nLC, p-Value 1",0
same,Fold Change of porphobilinogen,"[3]; metabolite porphobilinogen, platform nLC, p-Value 1",0
same,Fold Change of progesterone,"[3]; metabolite progesterone, platform pLC, p-Value 1",0
same,Fold Change of retinoic acid,"[3]; metabolite retinoic acid, platform nLC, p-Value 1",0
same,Fold Change of riboflavin,"[3]; metabolite riboflavin, platform pLC, p-Value 1",0
same,Fold Change of salicylic/HObenzoic,"[3]; metabolite salicylic/HObenzoic, platform nLC, p-Value 1",0
same,Fold Change of shikimic acid,"[3]; metabolite shikimic acid, platform nLC, p-Value 1",0
same,Fold Change of sinapinic acid,"[3]; metabolite sinapinic acid, platform nLC, p-Value 1",0
same,Fold Change of sugar-phosphate,"[3]; metabolite sugar-phosphate, platform pLC, p-Value 1",0
same,Fold Change of thiamine,"[3]; metabolite thiamine, platform pLC, p-Value 1",0
same,Fold Change of thymine,"[3]; platform nLC, p-Value 1",0
same,Fold Change of thymine,"[3]; platform pLC, p-Value 1",0
same,Fold Change of tryptophan,"[3]; metabolite tryptophan, platform pLC, p-Value 1",0
same,Fold Change of uric acid,"[3]; metabolite uric acid, platform pLC, p-Value 1",0
same,Fold Change of urocanic acid,"[3]; platform nLC, p-Value 1",0
same,Fold Change of urocanic acid,"[3]; platform pLC, p-Value 1",0
same,Fold Change of xanthosine(diH2O),"[3]; metabolite xanthosine(diH2O), platform pLC, p-Value 1",0
same,Fold Change of xanthosineDiH2O,"[3]; metabolite xanthosineDiH2O, platform nLC, p-Value 1",0
same,Fold Change of zeatin,"[3]; platform nLC, p-Value 1",0
same,Fold Change of zeatin,"[3]; platform pLC, p-Value 1",0
same,Fold Change: 4-methylcatechol,[3]; nLC,0
same,Fold Change: 5hydroxyLtryptophan,[3]; nLC,0
same,Fold Change: 6-benzylaminopurine,[3]; nLC,0
same,Fold Change: abscisic acid,[3]; nLC,0
same,Fold Change: adenine,[3]; nLC,0
same,Fold Change: anthranilic acid,[3]; nLC,0
same,Fold Change: benzoic acid,[3]; nLC,0
same,Fold Change: catechol,[3]; nLC,0
same,Fold Change: cinnamic acid,[3]; nLC,0
same,Fold Change: citricanoic/itaconi,[3]; nLC,0
same,Fold Change: coumaric acid,[3]; nLC,0
same,Fold Change: cytosine,[3]; nLC,0
same,Fold Change: diaminopimelic acid,[3]; nLC,0
same,Fold Change: dihydrofolic acid,[3]; nLC,0
same,Fold Change: estrone,[3]; nLC,0
same,Fold Change: farnesol,[3]; nLC,0
same,Fold Change: folic acid,[3]; nLC,0
same,Fold Change: gibberellic,[3]; nLC,0
same,Fold Change: guanine,[3]; nLC,0
same,Fold Change: histidine,[3]; nLC,0
same,Fold Change: homogentisic/uric,[3]; nLC,0
same,Fold Change: hydrocortisone,[3]; nLC,0
same,Fold Change: indole3pyruvic acid,[3]; nLC,0
same,Fold Change: jasmonic acid,[3]; nLC,0
same,Fold Change: kinetin,[3]; nLC,0
same,Fold Change: luteolin,[3]; nLC,0
same,Fold Change: malonic acid,[3]; nLC,0
same,Fold Change: methionine,[3]; nLC,0
same,Fold Change: 4-aminobenzoic acid,[3]; pLC,0
same,Fold Change: 4-methylcatechol,[3]; pLC,0
same,Fold Change: 5hydroxyLtryptophan,[3]; pLC,0
same,Fold Change: 6benzylaminopurine,[3]; pLC,0
same,Fold Change: abscisic acid,[3]; pLC,0
same,Fold Change: adenosine,[3]; pLC,0
same,Fold Change: allantoic acid,[3]; pLC,0
same,Fold Change: anthranilic acid,[3]; pLC,0
same,Fold Change: argininosuccinate,[3]; pLC,0
same,Fold Change: biotin,[3]; pLC,0
same,Fold Change: caffeine,[3]; pLC,0
same,Fold Change: citric acid TME,[3]; pLC,0
same,Fold Change: cytidine,[3]; pLC,0
same,Fold Change: diaminopimelic acid,[3]; pLC,0
same,Fold Change: dihydrofolic acid,[3]; pLC,0
same,Fold Change: dipicolinic acid,[3]; pLC,0
same,Fold Change: folic acid,[3]; pLC,0
same,Fold Change: glucosamine,[3]; pLC,0
same,Fold Change: glucosamine6PO4,[3]; pLC,0
same,Fold Change: histidine,[3]; pLC,0
same,Fold Change: hydrocortisone,[3]; pLC,0
same,Fold Change: itaconic acid dimes,[3]; pLC,0
same,Fold Change: kinetin,[3]; pLC,0
same,Fold Change: luteolin,[3]; pLC,0
same,# Reactions (Number Of Pathways Having at Least One Enzyme and One Compound Perturbed),[1],3
CC(C)OC(=O)Nc1cccc(Cl)c1 [Chloropropham],herbicidal phenotype in words,Arabidopsis thaliana,neither showed a strong herbicidal phenotype
